US20080125397A1, “2 (SULFONYL)ETHYL N,N,N',N' tetrakis(2 chloroethyl)phosphorodia” (Telik, Inc., priority 2006, published 2008)

Columns and labels:
[1] = test system: MX-1 tumor; experiment: MX-1 xenograft assay, oral administration; type: in vivo, athymic nu/nu mice; details: 150 mg/Kg by gavage once/day for 5 consecutive days
Description: (§1) Female athymic nu/nu mice (Harlan, Indianapolis, Ind., U.S.A. or similar vendor), 6-8 weeks old (approximately 20 g), were implanted in the mammary fat pad of the right fore flank with 20-30 mg pieces of MX-1 tumor harvested from similar nu/nu mice that had previously been implanted with the MX-1 tumor. […] Groups of mice were treated with 2-({2-oxo-2-[(pyridin-3-ylmethyl)amino]ethyl}sulfonyl)ethyl N,N,N′,N′-tetrakis(2-chloroethyl)phosphorodiamidate hydrochloride at 50 and 100 mg/Kg, dissolved in aqueous 5% dextrose, by intraperitoneal injection once/day for 5 consecutive days, with vehicle control. Tumor mass, estimated from volume, was measured twice weekly; and tumor growth inhibition was measured when the average tumor mass in the control group first exceeded 2000 mg.
(§2) A study similar to that described in In vivo Example 1 was performed using oral administration of 2-({2-oxo-2-[(pyridin-3-ylmethyl)amino]ethyl}sulfonyl)ethyl N,N,N′,N′-tetrakis(2-chloroethyl)phosphorodiamidate hydrochloride. A group of mice was treated with the compound, dissolved in water, at 150 mg/Kg by gavage once/day for 5 consecutive days (with vehicle control).

[2] = test system: DLD-1 (colorectal adenocarcinoma); experiment: Cytotoxicity/growth inhibition assay (CellTiter-Glo), DLD-1; type: cell-based, human
Description: (§3) The human cancer cell lines DLD-1 (colorectal adenocarcinoma), LNCaP (prostate carcinoma), and MIA PaCa-2 (pancreatic carcinoma) were obtained from the American Type Culture Collection, Manassas, Va., U.S.A., and MX-1 (breast carcinoma) from the National Cancer Institute, Bethesda, Md., U.S.A. The CellTiter-Glo assay kit was obtained from Promega Corporation, Madison, Wis., U.S.A. All products were used in accordance with manufacturer's directions. All assays were conducted in triplicate wells, with dimethyl sulfoxide (DMSO) solvent control. The extent of cell growth was expressed as a percentage of the signal from the solvent control wells.
(§4) Log-phase cells were trypsinized, collected by centrifugation, and resuspended in a small volume of fresh medium, and the density of viable cells was determined following Trypan Blue staining. Cells were diluted in fresh media (3×10^3 cells/mL for DLD-1, MIA PaCa-2, and MX-1, and 6×10^3 cells/mL for LNCaP), and added at 150 μL/well to 96-well plates, and incubated for several hours to allow attachment in the case of adherent cells. […] After incubation for 10 minutes at room temperature, and the plate was read with a luminometer.

[3] = test system: MIA PaCa-2 tumor; experiment: MiaPaCa-2 xenograft assay, intraperitoneal administration; type: in vivo, athymic nu/nu mice; details: 100 mg/Kg intraperitoneal once/day for 7 consecutive days
Description: Male athymic nu/nu mice, 6-8 weeks old (approximately 20 g), were implanted subcutaneously in the right fore flank with 20-30 mg pieces of MIA PaCa-2 tumor harvested from similar nu/nu mice that had previously been implanted with the MIA PaCa-2 tumor. […] A group of mice was treated with 2-({2-oxo-2-[(pyridin-3-ylmethyl)-amino]ethyl}sulfonyl)ethyl N,N,N′,N′-tetrakis(2-chloroethyl)phosphorodiamidate hydrochloride, dissolved in aqueous 5% dextrose, at 100 mg/Kg by intraperitoneal injection once/day for 7 consecutive days, with vehicle control.

[4] = test system: MX-1 tumor; experiment: MX-1 xenograft assay, intravenous administration; type: in vivo, athymic nu/nu mice
Description: as §1
as §2, with “intravenous” for “oral”, “aqueous 5% dextrose,” for “water,”, “40 and 80” for “150”, “tail vein injection” for “gavage”

[5] = test system: LNCaP (prostate carcinoma); experiment: Cytotoxicity/growth inhibition assay (CellTiter-Glo), LNCaP; type: cell-based, human
Description: as §3, §4

[6] = test system: MX-1 tumor; experiment: MX-1 xenograft assay, intraperitoneal administration; type: in vivo, athymic nu/nu mice
Description: as §1

[7] = test system: MX-1 (breast carcinoma); experiment: Cytotoxicity/growth inhibition assay (CellTiter-Glo), MX-1; type: cell-based, human
Description: as §3, §4

[8] = Solubility in water; type: physicochemical
[9] = test system: MIA PaCa-2 (pancreatic carcinoma); experiment: Cytotoxicity/growth inhibition assay (CellTiter-Glo), MIA PaCa-2; type: cell-based, human
Description: as §3, §4

[10] = Safety at the doses tested in the in vivo examples; set-up: species or system athymic nu/nu mice
Description: as §1, §2
A study similar to that described in In vivo Example 1 was performed using intravenous administration of 2-({2-oxo-2-[(pyridin-3-ylmethyl)amino]ethyl}sulfonyl)ethyl N,N,N′,N′-tetrakis(2-chloroethyl)phosphorodiamidate hydrochloride. […]

| Compound | inhibition of tumor growth compared to vehicle [1] | IC50 ([2]; Homo sapiens, 96 h, DLD-1, 4 days culture) | inhibition of tumor growth compared to vehicle [3] | inhibition of tumor growth compared to vehicle ([4]; 40 mg/Kg tail vein injection once/day for 5 consecutive days) | inhibition of tumor growth compared to vehicle ([4]; 80 mg/Kg tail vein injection once/day for 5 consecutive days) | IC50 ([5]; Homo sapiens, 96 h, 4 days culture) | inhibition of tumor growth compared to vehicle ([6]; 50 mg/Kg intraperitoneal once/day for 5 consecutive days) | inhibition of tumor growth compared to vehicle ([6]; 100 mg/Kg intraperitoneal once/day for 5 consecutive days) | IC50 ([7]; Homo sapiens, 72 h, MX-1, 3 days culture) | solubility [8] | IC50 ([9]; Homo sapiens, 72 h, MIA PaCa-2, 3 days culture) | potency compared with canfosfamide ([2]; DLD-1) | potency compared with canfosfamide [5] | potency compared with canfosfamide ([7]; MX-1) | safety/toxicity [10] | potency compared with canfosfamide ([9]; MIA PaCa-2) |
| --- | --- | --- | --- | --- | --- | --- | --- | --- | --- | --- | --- | --- | --- | --- | --- | --- |
| Cl.O=C(CS(=O)(=O)CCOP(=O)(N(CCCl)CCCl)N(CCCl)CCCl)NCc1cccnc1 [2-({2-Oxo-2-[(pyridin-3-ylmethyl)amino]ethyl}sulfonyl)ethyl N,N,N′,N′-tetrakis(2-chloroethyl)phosphorodiamidate hydrochloride] | 67% | 12 µM | 92% | 39% | 98% | 67 µM | 28% | 95% | 22 µM | ≥ 10000 µg/mL | 16 µM |  |  |  |  |  |
| O=C(CS(=O)(=O)CCOP(=O)(N(CCCl)CCCl)N(CCCl)CCCl)NCc1cccnc1 [2-({2-oxo-2-[(pyridin-3-ylmethyl)amino]ethyl}sulfonyl)ethyl N,N,N′,N′-tetrakis(2-chloroethyl)phosphorodiamidate] |  |  |  |  |  |  |  |  |  |  |  | at least as potent as canfosfamide | at least as potent as canfosfamide | at least as potent as canfosfamide | safe and non-toxic | at least as potent as canfosfamide |
| O=C(CS(=O)(=O)CCOP(=O)(N(CCCl)CCCl)N(CCCl)CCCl)NCc1cccnc1.O=C(O)C(O)C(O)C(=O)O [tartrate salt, 2-({2-Oxo-2-[(pyridin-3-ylmethyl)amino]ethyl}sulfonyl)ethyl N,N,N′,N′-tetrakis(2-chloroethyl)phosphorodiamidate tartrate] |  |  |  |  |  |  |  |  |  | ≥ 5000 µg/mL |  |  |  |  |  |  |
